In ChEMBL document CHEMBL5030517, “6-Halopyridylmethylidene Penicillin-Based Sulfones Efficiently Inactivate the Natural Resistance of Pseudomonas aeruginosa to β-Lactam Antibiotics” (J Med Chem, 2021):
Values after ≈ are worked out from the molar mass of the structure shown. Active and inactive are the calls of the source. The calls are words filed in the database; no cut-off is given here.

Tests used:
[1] = tested on: Pseudomonas aeruginosa PAO1; assay: Inhibition of beta-lactamase activity in Pseudomonas aeruginosa PAO1 36/14-210 (ST-235) assessed as MIC for cefpodoxime antibacterial activity at 4 mg/L by broth microdilution method
[2] = tested on: Pseudomonas aeruginosa PAO1; assay: Inhibition of beta-lactamase activity in Pseudomonas aeruginosa PAO1 deltaC+pUCP-(PDC-5) assessed as MIC for cefpodoxime antibacterial activity at 4 mg/L by broth microdilution method
[3] = tested on: Pseudomonas aeruginosa PAO1; assay: Inhibition of beta-lactamase activity in Pseudomonas aeruginosa PAO1 deltaC+pUCP-(PDC-1) assessed as MIC for cefpodoxime antibacterial activity at 4 mg/L by broth microdilution method
[4] = tested on: Pseudomonas aeruginosa PAO1; assay: Inhibition of beta-lactamase activity in Pseudomonas aeruginosa PAO1 deltaampD assessed as MIC for cefpodoxime antibacterial activity at 16 mg/L by broth microdilution method
[5] = tested on: Pseudomonas aeruginosa PAO1; assay: Inhibition beta lactamase PDC-1 in Pseudomonas aeruginosa PAO1 assessed half life of nitrocefin substrate measured by 96 well microtitre plate assay
Pseudomonas aeruginosa = assay: Inhibition of beta lactamase PDC-1 in Pseudomonas aeruginosa PAO1 for 30 min using MALDI TOF-MS analysis
[6] = tested on: Pseudomonas aeruginosa PAO1; assay: Inhibition of beta-lactamase activity in Pseudomonas aeruginosa PAO1 deltaDdeltsDh2deltaDh3 assessed as MIC for cefpodoxime antibacterial activity at 16 mg/L by broth microdilution method
[7] = tested on: Pseudomonas aeruginosa PAO1; assay: Inhibition of beta lactamase PDC-1 in Pseudomonas aeruginosa PAO1 assessed as reduction in enzyme activity using nitrocefin as chromogenic substrate preincubated for 10 min using 96 well microtiter plate
[8] = tested on: Pseudomonas aeruginosa PAO1; assay: Inhibition beta lactamase PDC-1 in Pseudomonas aeruginosa PAO1 assessed as maximum rate of inactivation using nitrocefin as substrate measured by 96 well microtitre plate
[9] = tested on: Pseudomonas aeruginosa PAO1; assay: Inhibition of beta-lactamase activity in Pseudomonas aeruginosa PAO1 assessed as MIC for cefpodoxime antibacterial activity at 16 mg/L by broth microdilution method
[10] = tested on: Pseudomonas aeruginosa PAO1; assay: Inhibition of beta-lactamase activity in Pseudomonas aeruginosa PAO1 deltadacBdeltadacC assessed as MIC for cefpodoxime antibacterial activity at 16 mg/L by broth microdilution method
[11] = tested on: Pseudomonas aeruginosa PAO1; assay: Inhibition of beta-lactamase activity in Pseudomonas aeruginosa PAO1 23/14-053 (ST-309) assessed as MIC for cefpodoxime antibacterial activity at 16 mg/L by broth microdilution method
[12] = tested on: Pseudomonas aeruginosa PAO1; assay: Inhibition of beta-lactamase activity in Pseudomonas aeruginosa PAO1 13/09-018 (ST-175) assessed as MIC for cefpodoxime antibacterial activity at 4 mg/L by broth microdilution method
[13] = tested on: Pseudomonas aeruginosa PAO1; assay: Inhibition of beta-lactamase activity in Pseudomonas aeruginosa PAO1 53/22-113 (ST-244) assessed as MIC for cefpodoxime antibacterial activity at 4 mg/L by broth microdilution method
[14] = tested on: Pseudomonas aeruginosa PAO1; assay: Inhibition of beta-lactamase activity in Pseudomonas aeruginosa PAO1 53/22-113 (ST-244) assessed as MIC for cefpodoxime antibacterial activity at 16 mg/L by broth microdilution method
[15] = tested on: Pseudomonas aeruginosa PAO1; assay: Inhibition of beta-lactamase activity in Pseudomonas aeruginosa PAO1 deltadacBdeltaampD assessed as MIC for cefpodoxime antibacterial activity at 16 mg/L by broth microdilution method
[16] = tested on: Pseudomonas aeruginosa PAO1; assay: Inhibition of beta-lactamase activity in Pseudomonas aeruginosa PAO1 deltadacB assessed as MIC for cefpodoxime antibacterial activity at 4 mg/L by broth microdilution method
[17] = tested on: Pseudomonas aeruginosa PAO1; assay: Inhibition of beta-lactamase activity in Pseudomonas aeruginosa PAO1 17/14-017 (ST-235) assessed as MIC for cefpodoxime antibacterial activity at 4 mg/L by broth microdilution method
[18] = tested on: Pseudomonas aeruginosa PAO1; assay: Inhibition of beta-lactamase activity in Pseudomonas aeruginosa PAO1 deltaC+pUCP-(PDC-5) assessed as MIC for cefpodoxime antibacterial activity at 16 mg/L by broth microdilution method
[19] = Inhibition beta lactamase PDC-1 in Pseudomonas aeruginosa PAO1 assessed as apparent inhibition constant using nitrocefin as substrate measured by 96 well microtitre plate; conditions: read-out: Ki(app)
[20] = tested on: Pseudomonas aeruginosa PAO1; assay: Inhibition of beta-lactamase activity in Pseudomonas aeruginosa PAO1 PAHUAC-14 (ST-966) assessed as MIC for cefpodoxime antibacterial activity at 4 mg/L by broth microdilution method
[21] = tested on: Pseudomonas aeruginosa PAO1; assay: Inhibition of beta-lactamase activity in Pseudomonas aeruginosa PAO1 23/14-053 (ST-309) assessed as MIC for cefpodoxime antibacterial activity at 4 mg/L by broth microdilution method
[22] = tested on: Pseudomonas aeruginosa PAO1; assay: Inhibition of beta-lactamase activity in Pseudomonas aeruginosa PAO1 deltadacBdeltadacC assessed as MIC for cefpodoxime antibacterial activity at 4 mg/L by broth microdilution method
[23] = tested on: Pseudomonas aeruginosa PAO1; assay: Inhibition beta lactamase PDC-1 in Pseudomonas aeruginosa PAO1 assessed as inactivation efficiency by measuring acylation rate (k2/K) using nitrocefin as substrate measured by 96 well microtitre plate
[24] = tested on: Pseudomonas aeruginosa PAO1; assay: Inhibition of beta-lactamase activity in Pseudomonas aeruginosa PAO1 deltaampD assessed as MIC for cefpodoxime antibacterial activity at 4 mg/L by broth microdilution method
[25] = tested on: Pseudomonas aeruginosa PAO1; assay: Inhibition of beta-lactamase activity in Pseudomonas aeruginosa PAO1 deltaDdeltsDh2deltaDh3 assessed as MIC for cefpodoxime antibacterial activity at 4 mg/L by broth microdilution method
[26] = tested on: Pseudomonas aeruginosa PAO1; assay: Inhibition of beta-lactamase activity in Pseudomonas aeruginosa PAO1 deltaC assessed as MIC for cefpodoxime antibacterial activity at 16 mg/L by broth microdilution method
[27] = tested on: Pseudomonas aeruginosa PAO1; assay: Inhibition of beta-lactamase activity in Pseudomonas aeruginosa PAO1 17/14-017 (ST-235) assessed as MIC for cefpodoxime antibacterial activity at 16 mg/L by broth microdilution method
[28] = tested on: Pseudomonas aeruginosa PAO1; assay: Inhibition of beta-lactamase activity in Pseudomonas aeruginosa PAO1 deltaC+pUCP-(PDC-1) assessed as MIC for cefpodoxime antibacterial activity at 16 mg/L by broth microdilution method
[29] = tested on: Pseudomonas aeruginosa PAO1; assay: Inhibition of beta-lactamase activity in Pseudomonas aeruginosa PAO1 PAHUAC-27(ST-22) assessed as MIC for cefpodoxime antibacterial activity at 16 mg/L by broth microdilution method
[30] = tested on: Pseudomonas aeruginosa PAO1; assay: Inhibition of beta-lactamase activity in Pseudomonas aeruginosa PAO1 deltadacBdeltapbpGdeltadacC assessed as MIC for cefpodoxime antibacterial activity at 16 mg/L by broth microdilution method
[31] = tested on: Pseudomonas aeruginosa PAO1; assay: Inhibition of beta-lactamase activity in Pseudomonas aeruginosa PAO1 6/04-224 (ST-175) assessed as MIC for cefpodoxime antibacterial activity at 16 mg/L by broth microdilution method
[32] = tested on: Pseudomonas aeruginosa PAO1; assay: Inhibition of beta-lactamase activity in Pseudomonas aeruginosa PAO1 deltadacBdeltaampD assessed as MIC for cefpodoxime antibacterial activity at 4 mg/L by broth microdilution method
[33] = tested on: Pseudomonas aeruginosa PAO1; assay: Inhibition of beta-lactamase activity in Pseudomonas aeruginosa PAO1 deltadacB assessed as MIC for cefpodoxime antibacterial activity at 16 mg/L by broth microdilution method
[34] = tested on: Pseudomonas aeruginosa PAO1; assay: Inhibition of beta-lactamase activity in Pseudomonas aeruginosa PAO1 deltaC assessed as MIC for cefpodoxime antibacterial activity at 4 mg/L by broth microdilution method
[35] = tested on: Pseudomonas aeruginosa PAO1; assay: Inhibition of beta-lactamase activity in Pseudomonas aeruginosa PAO1 13/09-018 (ST-175) assessed as MIC for cefpodoxime antibacterial activity at 16 mg/L by broth microdilution method
[36] = tested on: Pseudomonas aeruginosa PAO1; assay: Inhibition of beta-lactamase activity in Pseudomonas aeruginosa PAO1 assessed as MIC for cefpodoxime antibacterial activity at 4 mg/L by broth microdilution method
[37] = Inhibition beta lactamase PDC-1 in Pseudomonas aeruginosa PAO1 using nitrocefin as substrate measured by 96 well microtitre plate
[38] = tested on: Pseudomonas aeruginosa PAO1; assay: Inhibition of beta-lactamase activity in Pseudomonas aeruginosa PAO1 deltadacBdeltapbpGdeltadacC assessed as MIC for cefpodoxime antibacterial activity at 4 mg/L by broth microdilution method
[39] = tested on: Pseudomonas aeruginosa PAO1; assay: Inhibition of beta-lactamase activity in Pseudomonas aeruginosa PAO1 36/14-210 (ST-235) assessed as MIC for cefpodoxime antibacterial activity at 16 mg/L by broth microdilution method
[40] = tested on: Pseudomonas aeruginosa PAO1; assay: Inhibition of beta-lactamase activity in Pseudomonas aeruginosa PAO1 6/04-224 (ST-175) assessed as MIC for cefpodoxime antibacterial activity at 4 mg/L by broth microdilution method
[41] = tested on: Pseudomonas aeruginosa PAO1; assay: Inhibition beta lactamase PDC-1 in Pseudomonas aeruginosa PAO1 assessed as ratio of kinact/K1 using nitrocefin as substrate measured by 96 well microtitre plate
[42] = tested on: Pseudomonas aeruginosa PAO1; assay: Inhibition beta lactamase PDC-1 in Pseudomonas aeruginosa PAO1 assessed as deacylation off-rate using nitrocefin as substrate at 30 mins measured by 96 well microtitre plate
[43] = tested on: Pseudomonas aeruginosa PAO1; assay: Inhibition of beta-lactamase activity in Pseudomonas aeruginosa PAO1 PAHUAC-27(ST-22) assessed as MIC for cefpodoxime antibacterial activity at 4 mg/L by broth microdilution method
[44] = tested on: Pseudomonas aeruginosa PAO1; assay: Inhibition of beta-lactamase activity in Pseudomonas aeruginosa PAO1 PAHUAC-14 (ST-966) assessed as MIC for cefpodoxime antibacterial activity at 16 mg/L by broth microdilution method

MIC [1]: 16 µg/mL (≈ 28.2 µM)
MIC [2]: 2 µg/mL (≈ 3.53 µM)
MIC [3]: 1 µg/mL (≈ 1.76 µM)
MIC [4]: 1 µg/mL (≈ 1.76 µM)
T1/2 [5]: 1.75 h
inhibition (Pseudomonas aeruginosa): inactive
MIC [6]: 1 µg/mL (≈ 1.76 µM)
inhibition [7]: inactive
Kinact [8]: 0.032 s⁻¹
MIC [9]: 1 µg/mL (≈ 1.76 µM)
MIC [10]: 0.5 µg/mL (≈ 0.881 µM)
MIC [11]: 2 µg/mL (≈ 3.53 µM)
MIC [12]: 2 µg/mL (≈ 3.53 µM)
MIC [13]: 4 µg/mL (≈ 7.05 µM)
MIC [14]: 4 µg/mL (≈ 7.05 µM)
MIC [15]: 1 µg/mL (≈ 1.76 µM)
MIC [16]: 1 µg/mL (≈ 1.76 µM)
MIC [17]: 2 µg/mL (≈ 3.53 µM)
MIC [18]: 1 µg/mL (≈ 1.76 µM)
Ki [19]: 14 nM
MIC [20]: 4 µg/mL (≈ 7.05 µM)
MIC [21]: 2 µg/mL (≈ 3.53 µM)
MIC [22]: 1 µg/mL (≈ 1.76 µM)
k2/K inactivation efficiency [23]: 6.2 M⁻¹ s⁻¹
MIC [24]: 1 µg/mL (≈ 1.76 µM)
MIC [25]: 1 µg/mL (≈ 1.76 µM)
MIC [26]: 1 µg/mL (≈ 1.76 µM)
MIC [27]: 2 µg/mL (≈ 3.53 µM)
MIC [28]: 1 µg/mL (≈ 1.76 µM)
MIC [29]: 1 µg/mL (≈ 1.76 µM)
MIC [30]: 0.5 µg/mL (≈ 0.881 µM)
MIC [31]: 8 µg/mL (≈ 14.1 µM)
MIC [32]: 4 µg/mL (≈ 7.05 µM)
MIC [33]: 0.5 µg/mL (≈ 0.881 µM)
MIC [34]: 1 µg/mL (≈ 1.76 µM)
MIC [35]: 8 µg/mL (≈ 14.1 µM)
MIC [36]: 1 µg/mL (≈ 1.76 µM)
IC50 [37]: 0.9 nM
MIC [38]: 1 µg/mL (≈ 1.76 µM)
MIC [39]: 8 µg/mL (≈ 14.1 µM)
MIC [40]: 8 µg/mL (≈ 14.1 µM)
K [41]: 20.9 10^5/M/s
K [42]: 7 10^-2/min
MIC [43]: 1 µg/mL (≈ 1.76 µM)
MIC [44]: 2 µg/mL (≈ 3.53 µM)
SMILES: C[C@]1(COC(=O)Cc2ccc(O)c(O)c2)[C@H](C(=O)O)N2C(=O)/C(=C/c3cc(Br)ccn3)[C@H]2S1(=O)=O
